Source: ChEMBL document CHEMBL1201862, “PubChem BioAssay data set” (2004)
The source made the active and inactive calls.

How the values were obtained:
[1] = test system: HEK293; experiment: cells; assay type: functional, cell-based; conditions: Homo sapiens
[2] = biological target: T1, Nuclear receptor subfamily 0 group B member 1 (Homo sapiens, UniProt P51843); experiment: Luminescence-based cell-based high throughput dose response assay for inhibitors of the orphan nuclear receptor subfamily 0, group B, member 1 (DAX1; NR0B1). [Related pubchem assays (depositor defined):AID504766, AID504790]; assay type: functional
T1 sequence (P51843 whole entry): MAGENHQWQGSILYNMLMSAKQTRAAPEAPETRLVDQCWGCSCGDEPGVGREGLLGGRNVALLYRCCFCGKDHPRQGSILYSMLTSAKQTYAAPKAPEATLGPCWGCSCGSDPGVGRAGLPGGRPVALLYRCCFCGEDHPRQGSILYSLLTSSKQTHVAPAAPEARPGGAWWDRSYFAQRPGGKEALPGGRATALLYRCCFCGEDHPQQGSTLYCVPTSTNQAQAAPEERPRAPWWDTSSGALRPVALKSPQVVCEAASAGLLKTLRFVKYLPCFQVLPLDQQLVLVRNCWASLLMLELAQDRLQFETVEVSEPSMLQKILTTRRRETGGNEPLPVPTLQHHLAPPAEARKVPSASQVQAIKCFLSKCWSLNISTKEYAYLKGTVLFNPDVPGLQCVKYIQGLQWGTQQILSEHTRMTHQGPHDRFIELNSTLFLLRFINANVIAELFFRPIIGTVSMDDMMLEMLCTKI

[3] = A Cell Based Secondary Assay To Explore Cytotoxicity of Compounds that Sensitize Mycobacterium Tuberculosis to Beta-Lactam Antibiotics.; assay type: functional
[4] = biological target: T2, Short transient receptor potential channel 4 (Mus musculus, UniProt Q9QUQ5); experiment: mouse TRPC4 channel activators, dose response, cell-based, HEK293 TRPC4/mu-opioid, Fluo-4 calcium (AID 434937); assay type: functional
T2 sequence (Q9QUQ5 whole entry): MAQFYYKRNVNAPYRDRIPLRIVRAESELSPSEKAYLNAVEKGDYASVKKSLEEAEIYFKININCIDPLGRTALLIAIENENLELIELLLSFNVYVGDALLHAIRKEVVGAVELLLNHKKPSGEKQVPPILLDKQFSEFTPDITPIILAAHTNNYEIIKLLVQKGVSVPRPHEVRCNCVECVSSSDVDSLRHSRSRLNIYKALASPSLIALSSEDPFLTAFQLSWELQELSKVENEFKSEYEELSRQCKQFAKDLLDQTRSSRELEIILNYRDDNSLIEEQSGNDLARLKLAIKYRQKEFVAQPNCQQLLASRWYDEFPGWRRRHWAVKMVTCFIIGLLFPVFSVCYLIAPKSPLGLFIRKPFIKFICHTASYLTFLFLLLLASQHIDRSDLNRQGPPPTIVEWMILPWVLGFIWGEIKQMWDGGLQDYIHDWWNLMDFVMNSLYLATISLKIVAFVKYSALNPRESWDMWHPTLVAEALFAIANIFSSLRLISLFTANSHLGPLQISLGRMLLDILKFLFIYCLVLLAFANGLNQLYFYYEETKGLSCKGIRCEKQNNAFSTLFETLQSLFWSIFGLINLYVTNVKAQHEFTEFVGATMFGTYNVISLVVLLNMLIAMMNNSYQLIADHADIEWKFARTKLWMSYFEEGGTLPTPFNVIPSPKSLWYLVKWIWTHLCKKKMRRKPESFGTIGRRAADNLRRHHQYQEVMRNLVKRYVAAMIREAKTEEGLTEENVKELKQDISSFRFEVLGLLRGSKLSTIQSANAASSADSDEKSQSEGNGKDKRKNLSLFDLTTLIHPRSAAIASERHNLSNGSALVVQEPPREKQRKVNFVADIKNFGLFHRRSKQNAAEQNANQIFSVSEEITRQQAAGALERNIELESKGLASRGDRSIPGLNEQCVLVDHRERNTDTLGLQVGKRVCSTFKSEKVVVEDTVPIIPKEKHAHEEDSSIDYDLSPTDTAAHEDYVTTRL

[5] = biological target: Delta-type opioid receptor (Homo sapiens, UniProt P41143); experiment: Counterscreen for agonists of heterodimerization of the mu 1 (OPRM1) and delta 1 (OPRD1) opioid receptors: Luminescence-based cell-based high throughput dose response assay to identify agonists of OPRD1 homodimerization. [Related pubchem assays (depositor defined):AID504326, AID504355, AID504692, AID504904, AID504905]; assay type: functional
Delta-type opioid receptor, sequence (P41143 whole entry): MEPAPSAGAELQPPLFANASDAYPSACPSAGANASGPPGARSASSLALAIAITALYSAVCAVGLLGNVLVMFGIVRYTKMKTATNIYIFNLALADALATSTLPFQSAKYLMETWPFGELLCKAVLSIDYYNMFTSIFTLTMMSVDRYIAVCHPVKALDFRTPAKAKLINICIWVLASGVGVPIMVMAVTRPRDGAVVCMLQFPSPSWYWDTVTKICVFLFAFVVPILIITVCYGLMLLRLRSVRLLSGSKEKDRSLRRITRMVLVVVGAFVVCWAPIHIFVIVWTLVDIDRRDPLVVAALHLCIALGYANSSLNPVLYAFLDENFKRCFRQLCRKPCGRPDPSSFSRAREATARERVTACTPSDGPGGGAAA

[6] = biological target: Mu-type opioid receptor (Homo sapiens, UniProt P35372); experiment: Counterscreen for agonists of heterodimerization of the mu 1 (OPRM1) and delta 1 (OPRD1) opioid receptors: Luminescence-based cell-based high throughput dose response assay to identify agonists of OPRM1 homodimerization.; assay type: functional;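 further: U2OS cells expressing OPRM1 and beta-arrestin as split beta-galactosidase partners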
Mu-type opioid receptor, sequence (P35372 whole entry): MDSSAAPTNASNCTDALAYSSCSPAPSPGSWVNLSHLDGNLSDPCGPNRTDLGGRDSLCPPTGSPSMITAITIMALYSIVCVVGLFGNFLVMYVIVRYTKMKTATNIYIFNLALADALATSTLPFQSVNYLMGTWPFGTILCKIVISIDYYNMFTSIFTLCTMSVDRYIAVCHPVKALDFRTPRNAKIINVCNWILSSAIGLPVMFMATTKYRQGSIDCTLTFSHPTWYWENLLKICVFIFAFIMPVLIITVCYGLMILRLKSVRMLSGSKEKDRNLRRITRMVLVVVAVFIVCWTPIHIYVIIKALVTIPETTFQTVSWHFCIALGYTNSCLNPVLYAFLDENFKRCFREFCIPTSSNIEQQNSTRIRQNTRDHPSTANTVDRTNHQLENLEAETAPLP

[7] = biological target: 5-hydroxytryptamine receptor 5A (Homo sapiens, UniProt P47898); experiment: Counterscreen for agonists of OPRM1-OPRD1 heterodimerization: luminescence-based cell-based high throughput dose response assay to identify agonists of 5-hydroxytryptamine (serotonin) 5A receptor (HTR5A). [Related pubchem assays (depositor defined):AID504326, AID504355, AID504692, AID504904, AID504905]; assay type: functional
5-hydroxytryptamine receptor 5A, sequence (P47898 whole entry): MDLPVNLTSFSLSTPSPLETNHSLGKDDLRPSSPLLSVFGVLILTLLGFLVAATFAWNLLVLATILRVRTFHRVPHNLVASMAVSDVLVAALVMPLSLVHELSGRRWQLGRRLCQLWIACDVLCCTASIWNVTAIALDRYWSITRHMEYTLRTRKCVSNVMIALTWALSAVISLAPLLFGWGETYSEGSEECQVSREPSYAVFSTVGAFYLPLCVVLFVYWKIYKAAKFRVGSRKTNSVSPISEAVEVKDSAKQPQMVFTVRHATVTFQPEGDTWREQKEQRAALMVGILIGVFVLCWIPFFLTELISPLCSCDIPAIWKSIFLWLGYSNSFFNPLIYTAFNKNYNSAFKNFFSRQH

[8] = biological target: T3, DNA repair protein RAD52 homolog (Homo sapiens, UniProt P43351); assay type: functional, biochemical
T3 sequence (P43351 whole entry): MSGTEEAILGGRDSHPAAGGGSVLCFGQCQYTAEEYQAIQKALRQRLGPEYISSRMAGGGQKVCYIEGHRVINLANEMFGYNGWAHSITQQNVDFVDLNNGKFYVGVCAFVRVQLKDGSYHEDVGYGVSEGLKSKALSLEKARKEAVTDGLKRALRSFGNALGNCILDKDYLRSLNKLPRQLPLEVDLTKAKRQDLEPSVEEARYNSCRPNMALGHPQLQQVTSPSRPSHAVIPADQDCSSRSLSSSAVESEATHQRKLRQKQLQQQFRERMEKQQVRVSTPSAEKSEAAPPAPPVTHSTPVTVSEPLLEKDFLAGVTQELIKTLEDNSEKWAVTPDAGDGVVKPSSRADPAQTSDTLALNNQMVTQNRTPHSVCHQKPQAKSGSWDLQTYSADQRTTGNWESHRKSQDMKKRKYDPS

[9] = biological target: Beta-galactosidase (Escherichia coli, UniProt Q8VNN2); experiment: PubChem AID 485352; assay type: functional
Beta-galactosidase, sequence (Q8VNN2 whole entry): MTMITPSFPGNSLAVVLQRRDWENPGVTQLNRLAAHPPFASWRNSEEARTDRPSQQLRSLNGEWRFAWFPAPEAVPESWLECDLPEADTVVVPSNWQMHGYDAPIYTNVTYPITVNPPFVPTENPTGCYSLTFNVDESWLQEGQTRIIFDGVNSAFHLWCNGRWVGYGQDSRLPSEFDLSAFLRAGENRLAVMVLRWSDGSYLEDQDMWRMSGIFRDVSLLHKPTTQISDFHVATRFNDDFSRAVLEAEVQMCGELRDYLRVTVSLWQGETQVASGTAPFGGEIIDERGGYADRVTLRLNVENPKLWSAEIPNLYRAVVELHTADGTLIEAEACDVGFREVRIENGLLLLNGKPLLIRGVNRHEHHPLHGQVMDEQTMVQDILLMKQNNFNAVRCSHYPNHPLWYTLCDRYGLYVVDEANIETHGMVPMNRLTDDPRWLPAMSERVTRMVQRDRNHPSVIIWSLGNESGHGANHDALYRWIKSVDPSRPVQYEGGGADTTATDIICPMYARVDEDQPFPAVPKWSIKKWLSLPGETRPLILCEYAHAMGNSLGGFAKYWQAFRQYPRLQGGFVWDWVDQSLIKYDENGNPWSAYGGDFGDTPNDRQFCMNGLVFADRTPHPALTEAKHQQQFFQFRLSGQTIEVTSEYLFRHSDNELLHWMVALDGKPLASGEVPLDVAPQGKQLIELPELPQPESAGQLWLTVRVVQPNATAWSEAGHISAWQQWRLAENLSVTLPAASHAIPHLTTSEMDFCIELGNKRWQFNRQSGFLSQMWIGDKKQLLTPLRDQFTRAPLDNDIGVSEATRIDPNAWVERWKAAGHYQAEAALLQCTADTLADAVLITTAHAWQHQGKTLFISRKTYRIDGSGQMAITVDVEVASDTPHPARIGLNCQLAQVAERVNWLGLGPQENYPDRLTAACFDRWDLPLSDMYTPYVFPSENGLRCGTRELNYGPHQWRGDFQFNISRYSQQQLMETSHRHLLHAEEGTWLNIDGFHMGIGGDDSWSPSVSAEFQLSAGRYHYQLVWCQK

[10] = biological target: T4, Type-1 angiotensin II receptor (Homo sapiens, UniProt P30556); experiment: AT1 receptor antagonists, dose response, selectivity assay for APJ receptor antagonist project, cell-based, uHTS hits (AID 463214); assay type: functional;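 further: antagonist potency against angiotensin II stimulated AT1 response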
T4 sequence (P30556 whole entry): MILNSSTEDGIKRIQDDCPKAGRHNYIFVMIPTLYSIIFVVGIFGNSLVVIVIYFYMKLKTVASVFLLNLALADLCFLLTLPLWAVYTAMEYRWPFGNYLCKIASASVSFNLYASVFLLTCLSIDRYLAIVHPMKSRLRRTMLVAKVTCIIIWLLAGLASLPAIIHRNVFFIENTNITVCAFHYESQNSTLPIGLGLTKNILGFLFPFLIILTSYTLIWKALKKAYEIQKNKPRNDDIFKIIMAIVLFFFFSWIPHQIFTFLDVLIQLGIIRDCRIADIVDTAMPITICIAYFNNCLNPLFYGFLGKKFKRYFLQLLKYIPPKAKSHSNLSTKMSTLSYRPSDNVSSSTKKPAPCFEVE

[11] = biological target: Cytochrome P450 2C9 (Homo sapiens, UniProt P11712)
Cytochrome P450 2C9, sequence (P11712 whole entry): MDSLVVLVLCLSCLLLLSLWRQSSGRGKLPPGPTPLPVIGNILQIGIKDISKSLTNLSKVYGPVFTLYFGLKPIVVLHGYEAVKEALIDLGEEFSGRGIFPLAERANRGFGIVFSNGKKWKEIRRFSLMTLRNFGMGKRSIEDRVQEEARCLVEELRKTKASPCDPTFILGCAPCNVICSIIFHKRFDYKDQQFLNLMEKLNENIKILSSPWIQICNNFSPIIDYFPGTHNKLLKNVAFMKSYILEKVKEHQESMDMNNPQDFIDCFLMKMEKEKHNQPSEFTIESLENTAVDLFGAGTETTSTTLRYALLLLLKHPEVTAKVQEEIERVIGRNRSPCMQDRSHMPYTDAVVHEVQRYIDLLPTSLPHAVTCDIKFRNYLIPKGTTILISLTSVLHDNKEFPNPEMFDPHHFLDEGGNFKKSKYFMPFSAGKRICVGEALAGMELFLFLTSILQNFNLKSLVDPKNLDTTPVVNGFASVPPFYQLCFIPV

[12] = A549 cell cytotoxicity, dose response, cytotoxicity control, plate reader, cherry-pick, antagonist series (AID 743412); assay type: functional, cell-based
[13] = LGR2 antagonists, dose response, cell-based, HEK293, CRE-luciferase reporter, cherry pick, set 2 (AID 743343); assay type: functional;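 further: transfected cells were stimulated with diluted bursicon conditioned medium after compound addition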
[14] = MC4R antagonists, dose response, counter-screen for LGR2 antagonist project, cell-based, plate reader, cherry pick (AID 743444); assay type: functional;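 further: transfected HEK 293 cells stimulated with alpha-MSH peptide; potency of inhibitors of the alpha-MSH evoked signal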
[15] = biological target: T5, RNA-binding protein pos-1 (Caenorhabditis elegans, UniProt G5EF15); experiment: inhibitors of POS-1/mex-3 RNA binding, dose response, biochemical, fluorescence polarization (AID 1964);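 further: purified POS-1 fused to maltose binding protein made in E. coli; potency of compounds blocking POS-1 binding to fluorescent RNA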
T5 sequence (G5EF15 whole entry): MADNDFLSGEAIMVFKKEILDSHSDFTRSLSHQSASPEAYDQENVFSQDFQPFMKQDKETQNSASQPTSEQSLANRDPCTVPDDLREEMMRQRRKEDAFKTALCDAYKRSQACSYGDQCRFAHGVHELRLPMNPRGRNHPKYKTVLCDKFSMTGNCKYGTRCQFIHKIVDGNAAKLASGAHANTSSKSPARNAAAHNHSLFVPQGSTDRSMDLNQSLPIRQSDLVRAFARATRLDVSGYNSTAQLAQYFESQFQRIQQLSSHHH

[16] = biological target: T6, Zinc finger protein mex-5 (Caenorhabditis elegans, UniProt Q9XUB2); experiment: MEX-5/TCR-2 RNA interaction inhibitors, dose response, biochemical, C. elegans, fluorescence polarization (AID 1960)
T6 sequence (Q9XUB2 whole entry): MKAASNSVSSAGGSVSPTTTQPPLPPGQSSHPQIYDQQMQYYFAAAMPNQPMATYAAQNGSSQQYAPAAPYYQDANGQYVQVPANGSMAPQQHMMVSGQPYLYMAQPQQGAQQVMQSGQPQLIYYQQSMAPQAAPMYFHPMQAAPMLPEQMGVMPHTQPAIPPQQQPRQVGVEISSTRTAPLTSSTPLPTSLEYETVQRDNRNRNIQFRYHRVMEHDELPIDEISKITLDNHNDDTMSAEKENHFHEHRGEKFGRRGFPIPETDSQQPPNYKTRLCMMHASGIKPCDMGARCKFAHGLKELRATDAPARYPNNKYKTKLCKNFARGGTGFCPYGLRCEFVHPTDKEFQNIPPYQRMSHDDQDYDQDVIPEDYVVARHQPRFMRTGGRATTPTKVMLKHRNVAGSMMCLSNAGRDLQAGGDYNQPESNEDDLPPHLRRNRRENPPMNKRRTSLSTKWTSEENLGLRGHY

[17] = biological target: T7, Endoribonuclease toxin MazF (Escherichia coli K-12, UniProt P0AE70); experiment: MazF toxin RNase activators, dose response, biochemical, fluorescence, single-stranded RNA substrate, uHTS hits (AID 588481); assay type: functional
T7 sequence (P0AE70 whole entry): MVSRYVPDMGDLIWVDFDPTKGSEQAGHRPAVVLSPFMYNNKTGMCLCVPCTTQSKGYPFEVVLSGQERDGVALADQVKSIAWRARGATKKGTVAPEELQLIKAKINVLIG

[18] = biological target: T7, Endoribonuclease toxin MazF; experiment: fluorescent RNA oligo signal without MazF, dose response, counter-screen for MazEF activator project, biochemical, fluorescence, single-stranded RNase substrate (AID 588502); assay type: functional
[19] = inhibitors of firefly luciferase expression or activity, dose response, H4 neuroglioma cells, luminescence (AID 1990); assay type: functional, cell-based
[20] = test system: Streptococcus sp. 'group A'; experiment: growth inhibition of control SK(-) GAS strain, dose response, counter-screen for streptokinase expression inhibitor project, luminescence, kanamycin, BacTiterGlo, confirmation (AID 1900); assay type: functional, organism-based
[21] = Luminescence Cell-Based Dose Response HTS to Identify Inhibitors of 5'UTR Stem-Loop Driven Prion Protein mRNA Translation in H4 Neuroglioblastoma Cells. [Related pubchem assays: 1827 (Project Summary), 1813 (Primary HTS)]; assay type: functional
[22] = inhibitors of SNCA 5'UTR-driven reporter translation, confirmation, H4 neuroglioma cells, luminescence (AID 1988); assay type: functional, cell-based
[23] = test system: Streptococcus; experiment: Group A Streptococcus viability loss, dose response, counter-screen for streptokinase expression inhibitor project, luminescence, BacTiterGlo (AID 1915); assay type: functional, organism-based;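 further: potency for reduction of bacterial viability or growth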
[24] = test system: INS1; experiment: beta cell apoptosis inhibitors, cytokine rescue, dose response, luminescence, retest (AID 449756); assay type: functional, cell-based; conditions: Rattus norvegicus;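 further: cell death triggered by IL-1 beta plus TNF-alpha plus IFN-gamma mixture; protective hits raise ATP signal compared with cytokine alone wells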

COc1ccc(OC)c(C(C)NC(=O)c2ccc(Br)cc2)c1 (stereo not drawn)
IC50 [1]: > 67.6 µM (inactive) | IC50 [2]: > 67.6 µM (inactive)

CN1CCN(c2ccc(NC(=O)c3ccc(-c4cccc([N+](=O)[O-])c4)o3)cc2)CC1
CC50 [3]: 29 µM (active) | EC50 [4]: 0.299 µM (active) | EC50 [5]: 70 µM (inactive) | EC50 [6]: > 30.8 µM (inactive) | EC50 [7]: > 92.5 µM (inactive) | AC50 [8]: 10.3 µM (active)

O=C(COC(=O)c1cccnc1)c1ccc(Cl)c(Cl)c1
EC50 [9]: > 40 µM (inactive) | IC50 [10]: 36.8 µM (not active) | AC50 [11]: 7.94 µM (inconclusive)

Nc1nccc(-c2cc(-c3ccc(Cl)cc3Cl)no2)n1
IC50 [1]: > 67.6 µM (inactive) | IC50 [2]: > 67.6 µM (inactive) | AC50 [12]: > 52 µM (inactive) | AC50 [13]: 8.96 µM (active) | AC50 [14]: 8.35 µM (active)

Oc1[nH]c2ccccc2c1N=Nc1cccc(Cl)c1
EC50 [15]: 125 µM (active) | EC50 [16]: 45.4 µM (active) | EC50 [17]: > 99 µM (inactive) | EC50 [18]: > 99 µM (inactive)

COc1cc(Br)cc(/C=N/NC(=O)Cc2ccc(C(F)(F)F)cc2[N+](=O)[O-])c1O
EC50 [19]: > 120 µM (not active) | EC50 [20]: 1.84 µM (active) | EC50 [21]: 12.6 µM (active) | EC50 [22]: 9.21 µM (active) | EC50 [23]: 2.42 µM (active) | EC50 [5]: > 92.4 µM (inactive) | EC50 [6]: > 92.4 µM (inactive) | EC50 [7]: > 92.4 µM (inactive) | AC50 [24]: 4.33 µM (active)

Cn1c(N)c(C(=O)COC(=O)CSc2ccccc2)c(=O)n(C)c1=O
IC50 [1]: > 67.6 µM (inactive) | IC50 [2]: > 67.6 µM (inactive)

COC(=O)CSc1[nH]c2ccc(Br)cc2c1[N+](=O)[O-]
EC50 [9]: > 40 µM (inactive) | IC50 [10]: > 40 µM (not active)
